Measurements taken from US20150111896A1, “HEMATOPOIETIC PROTECTION AGAINST CHEMOTHERAPEUTIC COMPOUNDS USING SELECTIVE CYCLIN-DEPENDENT KINASE 4/6 INHIBITORS” (The University of North Carolina at Chapel Hill, priority 2008, published 2015).
Entries after “also recorded” stand apart in the source; their conditions may differ.

How the values were obtained:
[1] = system: human RB-null melanoma cells (A2058); test: Cell proliferation assay (WST-1 or CellTiter-Glo) after chemotherapeutic; settings: for protection from chemotherapy-induced cytotoxicity (cell proliferation assays): A2058 (CDK4/6-independent), pretreatment prior to carboplatin, etoposide or doxorubicin; for chemoprotective effects against doxorubicin (cell viability, CellTiter-Glo): 16 hours pretreatment, DOX 370 nM 8 hours, viability after 7 days
Description: (§6) In some embodiments, cell viability is assessed by performing a assay using 2-(4-iodophenyl)-3-(4-nitrophenyl)-5-(2,4-disulfophenyl)-2H-tetrazolium monosodium salt (WST-1), such as described further hereinbelow. In the WST-1 assay, WST-1 is cleaved by a mitochondrial reductase present in viable cells to form a colored product (i.e., formazan) that can be detected by measuring absorbance at a particular wavelength (e.g., 420-480 nm). […] The CellTiter-Glo® assay (CTG assay; Promega, Madison, Wis., United States of America) measures cell viability by measuring ATP concentration in cell lysate.
(§7) Cell lines: Telomerized human diploid fibroblast (tHDF) cells (HS68) were cultured in Dulbecco's Modified Eagle Medium (DMEM) +10% fetal bovine serum (FBS) with any additional compounds. The same conditions were used for A2058 and WM2664, human melanoma cell lines with known RB-pathway mutations: A2058 is RB-null, whereas WM2664 lacks INK4a/ARF. Thus, A2058 cells are CDK4/6-independent, while WM2664 cells are CDK4/6-dependent. Cells were cultured in DMEM+10% FBS.
(§8) Cell proliferation assays: Cell proliferation assays were performed by seeding 1×10^3 cells per well in a 96-well tissue culture plate in 100 μL of growth medium. Cells were treated as indicated with compound from Table 1 and doxorubicin, etoposide or carboplatin. Following treatment, cells were allowed to recover for 7 days in normal growth medium. At the end of the recovery period, cell number was quantified using the VVST-1 cell proliferation assay (TaKaRa Bio USA, Madison, Wis., United States of America) or the CellTiter-Glo® assay (CTG; Promega, Madison, Wis., United States of America). Data is presented as absorbance at 450 nm for the WST assays or Relative Light Units (RLU) for the CTG assays.

[2] = system: human melanoma cells lacking INK4a/ARF (WM2664); test: as above; settings: for protection from chemotherapy-induced cytotoxicity (cell proliferation assays): WM2664 (CDK4/6-dependent), pretreatment prior to carboplatin, etoposide or doxorubicin; for chemoprotective effects against doxorubicin (cell viability, CellTiter-Glo) / protection from doxorubicin-induced cytotoxicity (cell viability, WST-1 assay): WM2664; for chemoprotective effects against doxorubicin (cell viability, CellTiter-Glo): 16 hours pretreatment, DOX 122 nM 8 hours, viability after 7 days; for protection from doxorubicin-induced cytotoxicity (cell viability, WST-1 assay): absorbance at 450 nm, 7 days recovery
Description: as §6, §7, §8

[3] = system: hematopoietic stem and progenitor cells (HSPC); test: In vivo pharmacodynamic assay (BrdU incorporation, Ki67) in bone marrow; parameters: species or system mice; settings: two doses 300 mg/kg oral gavage, 2 hours prior to and at BrdU injection; relative to formulation alone; 300 mg/kg
Description: PD0332991: For HSPC proliferation experiments, mice received daily oral gavage with PD0332991 150 mg/kg for 2 days with 1 mg BrdU intraperitoneal injection (i.p.) every 6 hours for 24 hours prior to sacrifice.
2BrIC: For HSPC proliferation experiments, mice were treated with two doses of 2-bromo-12,13-dihydro-5H-indolo[2,3-a]pyrrolo[3,4-c]carbazole-5,7(6H)-dione (2BrIC) 300 mg/kg oral gavage or vehicle control. 2BrIC was solubilized for oral gavage using formulation #6 from the Hot Rod formulation kit (Pharmatek, Inc., San Diego, Calif., United States of America). 2BrIC was administered 2 hours prior to BrdU administration and readministered at the time of the BrdU 1 mg i.p. injection. After BrdU+/−2BrIC treatment for the indicated times, the mice were sacrificed and bone marrow harvested for immunophenotyping, and BrdU analysis.
Bone marrow (BM) was harvested from femurs of mice, pooled, and centrifuged to purify bone marrow mononuclear cells (BM-MNCs). Cells were then incubated for 5 minutes in ACK buffer to lyse red blood cells. All antibodies were from BD Pharmingen (San Jose, Calif., United States of America) unless otherwise indicated. Purified BM-MNCs were incubated with mouse lineage mixture biotin conjugated antibody, followed by streptavidin-FITC. Cells were then stained with Sca-1-PE-Cy7 and c-kit-APC-alexa750 antibodies. Cell viability was assessed using LIVE/DEAD Aqua Dead Cell Stain Kit (Invitrogen Corporation, Carlsbad, Calif., United States of America). For BrdU incorporation assay, the cells were fixed, permeablized, and stained with an APC BrdU Flow Kit according to the manufacturer's instruction. In all experiments, PE-Cy7, FITC, APC-alexa750, and the Aqua Dead cell stain isotype controls were included as appropriate. Flow cytometric analysis was performed using a CyAn ADP (Dako, Glostrup, Denmark). For each sample, a minimum of 500,000 cells was analyzed and the data were analyzed using FlowJo software (Tree Star, Ashland, Oreg., United States of America).

[4] = system: mice exposed to chemotherapeutic agents; test: Myelosuppression assay: weekly complete blood counts; assay type: in vivo; settings: 150 mg/kg oral gavage, Carbo 100 mg/kg i.p., blood on sixth day
Description: PD0332991: In the carboplatin experiments, mice were treated with a single dose of PD0332991 150 mg/kg oral gavage or vehicle control followed by carboplatin 100 mg/kg IP injection. In the doxorubicin experiments, mice were treated with a PD0332991 150 mg/kg by oral gavage or vehicle control one hour before doxorubicin 10 mg/kg by IP injection on day 0 and then repeated on day 7.
2BrIC: Mice were treated with a single dose of carboplatin 100 mg/kg by IP injection and two doses of 2BrIC 150mg/kg oral gavage or vehicle control. Mice were pretreated with 2BrIC two hours prior to carboplatin administration and then readministered a second dose of 2BrIC at the time of the carboplatin injection.
Baseline complete blood count (CBC) analysis were performed on a subset of mice prior to drug administration. Following drug administration (chemotherapy+/−indicated CDK4/6 inhibitor or control), mice were monitored weekly for the presence of myelosuppression by CBC analysis. CBC analysis was performed using BD Microtainer tubes with K2E (K2EDTA), 40 μL of blood was collected by tail vein nick. Blood was analyzed using a HESKA CBC-Diff Veterinary Hematology System. CBC analysis included measurement of white blood cells, lymphocytes, granulocytes, monocytes, hematocrit, red blood cells, hemoglobin, platelets, and other common hematological parameters.

[5] = system: human RB-null melanoma cells (A2058); test: γH2AX assay (DNA damage, flow cytometry); assay type: cell-based; settings: 16 hours pretreatment, then 8 hours Carbo, Etop or Dox
Excerpt: (§1) Reduction in DNA damage effected by the test compound or maintenance of cell viability effected by the test compound in cells treated with cytotoxic compounds can be assessed in any suitable manner. For example, DNA damage in cell populations can be assessed by performing a gamma-H2AX assay as described further herein below. Mammalian cells respond to agents that introduce DNA double-stranded breaks with the immediate and substantial phosphorylation of histone H2AX. Thus, detection of the phosphorylated H2AX, termed gamma-H2AX (γH2AX), using commercially available antibodies, can serve as a measure of DNA damage in cells.
(§2) Cells were cultured in DMEM+10% FBS.
(§3) γH2AX assay: For γH2AX assay, cells were treated with a dose response of PD332991 or 2BrIC for 24 hours. Cells were fixed, permeabilized, and stained with anti-γH2AX antibody as per γH2AX Flow Kit (Millipore, Billerica, Mass., United States of America). γH2AX levels were assessed by flow cytometry.

[6] = system: telomerized human diploid fibroblast (tHDF) cells (HS68); test: γH2AX assay (DNA damage, flow cytometry); assay type: cell-based; settings: 16 hours pretreatment, then 8 hours Carbo, Etop or Dox
Excerpt: as §1, §2, §3

[7] = system: human melanoma cells lacking INK4a/ARF (WM2664); test: γH2AX assay (DNA damage, flow cytometry); assay type: cell-based; settings: 16 hours pretreatment
Excerpt: as §1, §2, §3

[8] = system: telomerized human diploid fibroblast (tHDF) cells (HS68); test: Cell cycle analysis (BrdU and propidium iodide, flow cytometry); assay type: cell-based; settings: HS68 (CDK4/6-dependent), 24 hours treatment
Description: as §2
(§4) Cell cycle analysis: Cell cycle analysis was performed using BrdU and propidium iodide (both from BD Biosciences Pharmigen, San Jose, Calif., United States of America) following the manufacturer's protocol. Cells were treated for 24 hours with a test compound at a desired dose prior to 15 minutes BrdU pulse, cell harvesting, fixation, staining, and analysis by flow cytometry.
(§5) Histograms of dose-response curves of PD332991 and 2BrIC in HS68, WM2664 and A2058 cells were analyzed using Mod-Fit™ software from Verity Software House (Topsham, Me., United States of America).

[9] = system: human melanoma cells lacking INK4a/ARF (WM2664); test: as above; assay type: cell-based; settings: WM2664 (CDK4/6-dependent), 24 hours treatment
Description: as §2, §4, §5

[10] = system: telomerized human diploid fibroblast (tHDF) cells (HS68); test: Cell proliferation assay (WST-1 or CellTiter-Glo) after chemotherapeutic; settings: for protection from chemotherapy-induced cytotoxicity (cell proliferation assays): HS68 (CDK4/6-dependent), pretreatment prior to carboplatin, etoposide or doxorubicin; for chemoprotective effects against doxorubicin (cell viability, CellTiter-Glo) / protection from doxorubicin-induced cytotoxicity (cell viability, WST-1 assay): HS68; for chemoprotective effects against doxorubicin (cell viability, CellTiter-Glo): 16 hours pretreatment, DOX 370 nM 8 hours, viability after 7 days; for protection from doxorubicin-induced cytotoxicity (cell viability, WST-1 assay): absorbance at 450 nm, 7 days recovery
Description: as §6, §7, §8

[11] = system: human RB-null melanoma cells (A2058); test: Cell cycle analysis (BrdU and propidium iodide, flow cytometry); assay type: cell-based; settings: A2058 (RB-null, CDK4/6-independent), 24 hours treatment
Description: as §2, §4, §5

Row | Structure (SMILES) | protection from chemotherapy-induced cytotoxicity (cell proliferation assays) [1] | protection from doxorubicin-induced cytotoxicity (cell viability, WST-1 assay) ([1]; A2058, absorbance at 450 nm, 7 days recovery) | protection from chemotherapy-induced cytotoxicity (cell proliferation assays) [2] | incorporation of BrdU into Lin−Kit+Sca1+ cells (MPP) [3] | protection of blood cell counts from carboplatin [4] | protection from doxorubicin-, carboplatin- or etoposide-induced DNA damage (gamma-H2AX) [5] | protection from doxorubicin-, carboplatin- or etoposide-induced DNA damage (gamma-H2AX) [6] | protection from doxorubicin-, carboplatin- or etoposide-induced DNA damage (gamma-H2AX) ([7]; then 8 hours Carbo, Etop or Dox) | protection from carboplatin-induced DNA damage (gamma-H2AX positive cells) ([7]; then 8 hours carboplatin) | protection from doxorubicin-induced DNA damage (gamma-H2AX positive cells) ([7]; then 8 hours doxorubicin) | protection from etoposide-induced DNA damage (gamma-H2AX positive cells) ([7]; then 8 hours etoposide) | cell cycle effect [8] | cell cycle effect [9] | protection from chemotherapy-induced cytotoxicity (cell proliferation assays) [10] | chemoprotective effects against doxorubicin (cell viability, CellTiter-Glo) ([1]; A2058) | chemoprotective effects against doxorubicin (cell viability, CellTiter-Glo) [2] | cell cycle effect [11] | chemoprotective effects against doxorubicin (cell viability, CellTiter-Glo) [10] | protection from doxorubicin-induced cytotoxicity (cell viability, WST-1 assay) [2] | protection from doxorubicin-induced cytotoxicity (cell viability, WST-1 assay) [10]
1 | O=C1NC(=O)c2c1c1c3ccccc3[nH]c1c1[nH]c3cc(Br)ccc3c21 [Compound 2BrIC, 2-bromo-12,13-dihydro-5H-indolo[2,3-a]pyrrolo[3,4]-carbazole-5,6-dione] | not | inability | significant protection | inhibited; also recorded: clearly reducing proliferation | provides protection of red blood cells and hemoglobin | inability | attenuated γH2AX staining; also recorded: ability | attenuated γH2AX staining | ability | ability | ability | strong, clean and reversible G1-arrest | strong, clean and reversible G1-arrest | significant protection |  |  |  |  |  | 
2 | COc1ccc(F)c(F)c1C(=O)c1cnc(NC2CCN(S(C)(=O)=O)CC2)nc1N [Compound 7] | failed to protect |  | failed to protect |  |  |  |  |  |  |  |  | did not induce a clean G1 arrest; also recorded: does not induce G1 arrest | did not induce a clean G1 arrest; also recorded: does not induce G1 arrest | failed to protect | absence of chemoprotective effects | absence of chemoprotective effects | did not induce a clean G1 arrest | absence of chemoprotective effects |  | 
3 | CN1CCN(c2ccc(Nc3ncc4cnn(C5CCCCC5)c4n3)cc2)CC1 [Compound 8] |  |  | failed to protect |  |  |  |  |  |  |  |  | did not induce a clean G1 arrest | did not induce a clean G1 arrest | failed to protect |  |  | did not induce a clean G1 arrest |  | inability | inability
4 | CN1CCN(Cc2ccc(Nc3ncc4cnn(C5CCCCC5)c4n3)cc2)CC1 [Compound 9] |  |  | failed to protect |  |  |  |  |  |  |  |  | did not induce a clean G1 arrest | did not induce a clean G1 arrest | failed to protect |  |  | did not induce a clean G1 arrest |  | inability | inability
5 | CN1CCN(C(=O)c2ccc(Nc3ncc4cnn(C5CCCCC5)c4n3)cc2)CC1 [Compound 11] |  |  | failed to protect |  |  |  |  |  |  |  |  | did not induce a clean G1 arrest | did not induce a clean G1 arrest | failed to protect |  |  | did not induce a clean G1 arrest |  | inability | inability
6 | O=c1c(-c2ccc(O)cc2)coc2cc(O)cc(O)c12 [Genistein] | failed to protect |  | failed to protect |  |  |  |  |  |  |  |  | did not induce a clean G1 arrest | did not induce a clean G1 arrest | failed to protect | absence of chemoprotective effects | absence of chemoprotective effects | did not induce a clean G1 arrest | absence of chemoprotective effects |  | 
7 | CN1CC[C@H](c2c(O)cc(O)c3c(=O)cc(-c4ccccc4Cl)oc23)[C@H](O)C1 [flavopiridol] | failed to protect |  | failed to protect |  |  |  |  |  |  |  |  | did not induce a clean G1 arrest; also recorded: does not induce G1 arrest | did not induce a clean G1 arrest; also recorded: does not induce G1 arrest | failed to protect | absence of chemoprotective effects | absence of chemoprotective effects | did not induce a clean G1 arrest | absence of chemoprotective effects |  | 
